{
  "source": "patent US20050222126A1",
  "about": "“Antiangiogenic compounds and an assay for inhibitors of cell invasion” (priority 2001, published 2005)",
  "key": {"axonal growth cones": {"tested_on": "axonal growth cones", "test": "Neuronal migration in insect embryo model", "type": "in vivo", "conditions": "5 μM", "protocol": "Synthetic dihydromotuporamine (DiH-MPC, 5 μM) affected neuronal migration in a well-characterized insect embryo model. DiH-MPC slowed stereotypical migration of axonal growth cones whose ultimate synaptic targets are in the central nervous system (CNS). […] Therefore, the motuporamines have application in situations where reduced axonal sprouting would be of benefit after CNS wounding. This is of particular interest in spinal cord lesions where wound-induced axonal sprouting and migration (i.e. plasticity) leads to the inappropriate intermingling of neuronal pathways, which is a major impediment to clinically efficacious CNS regeneration."}, "MDA 231 cells [1]": {"tested_on": "MDA 231 cells", "test": "Assay for invasion inhibitors (Matrigel, recovery of non-invading cells, MTT)", "type": "cell-based, human", "conditions": "for IC50: 2.5 h, read-out: IC50 invasion inhibition", "protocol": "Matrigel (Collaborative Biomedical Products, Bedford, Mass.) was diluted 1:1 in ice-cold DMEM/F12 and 50 μl was pipetted into wells of ice-cold 96-well cell culture plates (Falcon) using ice-cold pipette tips, avoiding the sides of each well. The matrix was then allowed to gel and then dry overnight in a dry 37° C. incubator followed by rehydration with 100 μl of growth medium 1 h prior to cell plating. This treatment produces a matrix that is less prone to breakage. On top of the Matrigel, was added 100 μl medium warmed to 37° C., with or without 1 μl of sponge extract dissolved in DMSO, followed by 100 μl medium containing 60,000 MDA 231 cells. Addition of 1 μl of DMSO served as a negative control. 50 μM […] LY294002, a phosphatidylinositol 3-kinase inhibitor known to inhibit invasion, served as a positive control. The cells were then incubated for 2.5 h to allow invasion to take place.\nMost of the cell culture, medium was removed without disturbing the cells. This may be accomplished using a hand-held pipettor, but more consistent results are achieved using the aspiration function of a Bio-Tek Elx405 96-well plate washer with the aspiration needle positioned about 2 mm above the surface of the Matrigel. […] The cells were then suspended by pipetting up and down three times using the 100 μl setting of a hand-held pipettor, and 100 μl was withdrawn and transferred to fresh plates without Matrigel containing 100 μl medium supplemented with 30% fetal calf serum to inactivate the trypsin. The cells were then incubated overnight to allow attachment of cells to the plastic surface. Live cells were measured using the MTT assay: the cell culture medium was replaced with 100 μl fresh medium and 25 μl of a 5 mg/ml solution of 3(4,5-dimethylthiazol-2-yl)-2,5-diphenyltetrazolium bromide in phosphate-buffered saline. After 2 hr at 37° C., the solution was removed and 100 μl of 20% sodium dodecyl sulfate dissolved in dimethylformamide: water (1:1) was added to lyse the cells. After overnight incubation at 37° C., absorbance was measured at 570 nm."}, "HUVEC [2]": {"tested_on": "HUVEC", "test": "Endothelial sprouting assay", "type": "cell-based, human", "conditions": "VEGF 15 ng/ml", "protocol": "Endothelial sprouting was assessed by a modification of Nehls, V. and Drenckham, D. (1995) Microvasc. Res, 50:311-322). Microcarrier beads coated with denatured collagen (Cytodex 3, Sigma) were seeded with HUVEC. When the cells reached confluence an the beads, equal numbers of HUVEC-coated beads were embedded in fibrin gels in 96-well plates. For preparation of fibrin gels, bovine fibrinogen was dissolved in MCDB medium at a concentration of 2.5 mg/ml. Aprotinin was added at a concentration of 0.05 mg/ml and the solution was filtered through a 0.22 μm filter. The fibrinogen solution was supplemented with 15 ng/ml vascular endothelial growth factor (VEGF) with or without Motuporamine C. As a control, fibrinogen solution without VEGF or Motuporamine C was used. […] After 3 days of incubation with daily changes of the medium, the number of capillary-like tubes formed per microcarrier bead (sprouts/bead) was counted by microscopy. Only sprouts greater than 150 μm in length and composed of at least 3 endothelial cells were counted.\nIn the endothelial sprouting assay, human umbilical vein endothelial cells (HUVEC) are seeded onto collagen-coated beads. Exposure to vascular endothelial growth factor stimulates the formation of capillary-like tubes called sprouts, whose number and length may be measured over time by microscopy."}, "MDA 231 cells [3]": {"tested_on": "MDA 231 cells", "test": "Cell migration: closure of gap in confluent monolayer", "type": "cell-based, human", "conditions": "5 μM, 24 hours", "protocol": "The effects of Motuporamine C on cell spreading and actin ruffling indicates invasion inhibition by decreasing cell migration. A sterile toothpick was drawn across a confluent monolayer of MDA 231 cells, leaving a cell-free gap of about 100 μm. Closure of the gap by cell migration was monitored by microscopy. In the absence of Motuporamine C, cells migrated into the gap and essentially closed it within 24 hours. These cells had broad lamellar ruffles along their leading edges throughout which were condensations of actin. […] These cells had only small and discontinuous ruffles along their leading edges and contained only small discrete patches of actin, looking similar to the “button-like” condensations observed in pre-spread cells."}, "MDA 231 cells [4]": {"tested_on": "MDA 231 cells", "test": "Cytotoxicity: cell proliferation after 24 h incubation with compound", "type": "cell-based, human", "conditions": "for effects on cell proliferation: 24 h, proliferation followed up to 5 additional days", "protocol": "The cytotoxic effects of Motuporamine C were examined by incubating cells in the presence of different concentrations of the compound for 24 h. Motuporamine C was washed away and cell proliferation was measured for up to 5 additional days. […] Likewise, the compounds shown in FIGS. 1, 2, 4, 5, 6, and 8-13 have low cytotoxicity."}, "[5]": {"tested_on": "Lewis Lung and SCCVII tumours", "test": "Tumour growth in vivo", "conditions": "i.p. daily, 10-15 mg/kg/day, mice"}, "HUVEC [6]": {"tested_on": "HUVEC", "test": "HUVEC migration, modified Boyden chamber assay", "type": "cell-based, human", "conditions": "2.5 μM and 5 μM, VEGF 15 ng/ml", "protocol": "(§1) Motuporamine C had no effect on survival of confluent HUVEC at concentrations up to 10 μM and for up to 72 hours. […] Rather, Motuporamine C inhibited HUVEC migration as assessed using a modified Boyden chamber assay."}, "MDA 231 cells [7]": {"tested_on": "MDA 231 cells", "test": "Cell spreading and actin cytoskeleton on tissue culture plastic", "type": "cell-based, human", "protocol": "The cells were plated on rigid tissue culture plastic in the presence of serum, which contains spreading factors (Ham). Under these conditions, most MDA 231 cells spread on the plastic within 4 h in the absence of Motuporamine C. […] These ruffles, which appear black in phase contrast microscopy represent sites of dynamic actin-mediated membrane movement in both spreading and migrating cells. […] These rounded cells remained attached to the tissue culture plastic by small lamellae that had small, discontinuous ruffles.\nMDA 231 cells were also pre-spread for 20 hours on tissue culture plastic and then treated with Motuporamine C (5 μM) for 4 hours."}, "HUVEC [8]": {"tested_on": "HUVEC", "test": "HUVEC survival and proliferation", "type": "cell-based, human", "protocol": "as §1"}, "[9]": {"tested_on": "chick chorioallantoic membrane", "test": "Chick chorioallantoic membrane assay (CAM) for angiogenesis", "type": "in vivo, chicken", "conditions": "VEGF 30 ng/ml", "protocol": "Fertilized white Leghorn chicken eggs were incubated at 37° C. under conditions of constant humidity. On embryonic day 6, the developing chorioallantoic membrane (CAM) was separated form the shell by opening a small circular window at the broad end of the egg above the air sac. After removal of the inner membrane, the opening was sealed with Parafilm and the eggs were incubated for 2 more days. Motuporamine C was prepared in PBS supplemented with 30 ng/ml VEGF. On day 8, 20 μl was loaded onto 2 mm^3 gelatin sponges (Gelfoam, Pharmacia Upjohn) that were placed on the surface of the developing CAM. Sponges containing vehicle alone (20 μl PBS) were used as negative controls whereas sponges containing 20 μl of 30 ng/ml VEGF in PBS were used as positive controls, Eggs were resealed and returned to the incubator. On day 10, images of CAM were captured digitally using an Olympus SZX9 stereomicroscope equipped with a Sport RT digital imaging system (Diagnostics Instruments)."}, "[10]": {"tested_on": "primary Lewis lung tumour", "test": "Development of tumour metastases in vivo", "conditions": "i.p. 15 mg/kg/day, C57 mice, primary tumour irradiated", "protocol": "Primary tumours were grown to a specific size and then irradiated permitting the animals to survive long enough for lung metastases to be quantified."}},
  "note": "“Also recorded” adds a separate entry of the source.",
  "data": [
    {"compound": "NCCCNCCCN1CCCCCCCCCCCCCC1", "note": "[DiH-MPC, Dihydromotuporamine C]", "values": [
      {"measurement": "migration of axonal growth cones", "setting": "axonal growth cones", "value": "slowed"},
      {"measurement": "steering or pathfinding of growth cones", "setting": "axonal growth cones", "value": "no steering or pathfinding deficits"}
    ]},
    {"compound": "NCCCNCCCN1CCCCCCCCCCCC1", "note": "[Motuporamine A]", "values": [
      {"measurement": "IC50", "setting": "MDA 231 cells [1]; MDA 231 cells on Matrigel", "value": 3000, "unit": "nM"}
    ]},
    {"compound": "NCCCNCCCN1CCCC/C=C\\CCCCCCCC1", "note": "[Motuporamine C]", "values": [
      {"measurement": "sprout formation in response to VEGF", "setting": "HUVEC [2]; 2.5 μM", "value": "clear inhibition"},
      {"measurement": "sprout formation in response to VEGF", "setting": "HUVEC [2]; 5 μM", "value": "complete inhibition"},
      {"measurement": "detachment of cells from the matrix", "setting": "MDA 231 cells [1]; 5 μM", "value": "did not cause the cells to detach"},
      {"measurement": "activity in the invasion inhibition assay (in words)", "setting": "MDA 231 cells [1]; MDA 231 cells on Matrigel", "value": "strong activity; also recorded: slightly more active"},
      {"measurement": "concentration that completely inhibited invasion", "setting": "MDA 231 cells [1]; MDA 231 cells on Matrigel", "value": 5, "unit": "µM"},
      {"measurement": "IC50", "setting": "MDA 231 cells [1]; MDA 231 cells on Matrigel", "value": 1000, "unit": "nM"},
      {"measurement": "cell migration (gap closure)", "setting": "MDA 231 cells [3]", "value": "slows cell migration"},
      {"measurement": "effects on cell proliferation", "setting": "MDA 231 cells [4]; 1.6 μM", "value": "no detectable effects"},
      {"measurement": "effects on cell proliferation", "setting": "MDA 231 cells [4]; 4 and 8 μM", "value": "mild inhibition"},
      {"measurement": "cytotoxicity (in words)", "setting": "MDA 231 cells [4]; proliferating MDA 231 cells, low micromolar concentrations", "value": "little or no toxicity"},
      {"measurement": "reduction in tumour growth rate compared to controls", "setting": "[5]", "value": "25-50%"},
      {"measurement": "tumour growth compared to vehicle controls", "setting": "[5]", "value": "significant decrease"},
      {"measurement": "migration of HUVEC towards VEGF", "setting": "HUVEC [6]", "value": "inhibited the migration"},
      {"measurement": "cell spreading", "setting": "MDA 231 cells [7]; plated on plastic with serum, 4 h, increasing doses up to 5 μM", "value": "decreased cell spreading"},
      {"measurement": "rounding of pre-spread cells", "setting": "MDA 231 cells [7]; pre-spread 20 hours, 5 μM for 4 hours", "value": "did not round-up"},
      {"measurement": "actin cytoskeleton (rhodamine-phalloidin staining)", "setting": "MDA 231 cells [7]; pre-spread cells, 5 μM for 4 hours", "value": "subtle changes"},
      {"measurement": "rounding of pre-spread cells", "setting": "MDA 231 cells [7]; treatment up to 48 hours", "value": "did not cause significant cell rounding"},
      {"measurement": "proliferation rate of HUVEC", "setting": "HUVEC [8]", "value": "does not decrease"},
      {"measurement": "survival of confluent HUVEC", "setting": "HUVEC [8]; up to 10 μM, up to 72 hours", "value": "no effect"},
      {"measurement": "angiogenesis in CAM assay", "setting": "[9]", "value": "inhibits angiogenesis"},
      {"measurement": "incidence of lung metastases", "setting": "[10]", "value": "decreased incidence"}
    ]},
    {"compound": "NCCCNCCCn1c2ccccc2c2ccccc21", "note": "[carbazole analog]", "values": [
      {"measurement": "activity in the invasion inhibition assay (in words)", "setting": "MDA 231 cells [1]; MDA 231 cells on Matrigel", "value": "potent activity"},
      {"measurement": "IC50", "setting": "MDA 231 cells [1]; MDA 231 cells on Matrigel", "value": 3000, "unit": "nM"}
    ]},
    {"compound": "C=C1[C@@H](C)[C@H]2[C@H](Cc3ccccc3)NC(=O)[C@]23[C@H](OC(C)=O)/C=C/[C@@](C)(O)C(=O)[C@@H](C)C/C=C/[C@H]3[C@@H]1O", "note": "[cytochalasin D, reference compound]", "values": [
      {"measurement": "actin cytoskeleton", "setting": "MDA 231 cells [7]; 1 μg/ml", "value": "complete disassembly of the actin filaments"},
      {"measurement": "rounding of pre-spread cells", "setting": "MDA 231 cells [7]; 1 μg/ml", "value": "round up completely"}
    ]}
  ]
}
